From a melting point compilation (Tetko et al.; mined from patent text by program, amines drawn as free bases though some values may be those of a salt)
Residues, ends and D or L forms follow the SMILES beside them. *: point of attachment. Cbz = O=C(OCc1ccccc1)*

melting point [°C]	Compound
184 to 186	Cc1ccc(C(=O)NC(N2CCN(c3cccc(F)c3)C2=S)C(Cl)(Cl)Cl)cc1 (stereo unspecified)
225	CC(=O)c1ccc2[nH]c(C(=O)c3ccc(Cl)cc3)c(CC(=O)O)c2c1
119 to 122	CC1=C(C(=O)Nc2cc(C(=O)OC(C)C)c(C)cc2F)SCCO1
138 to 142	CN1CCN(c2cccc(Nc3cc(NC(=O)Nc4c(Cl)cc(Cl)cc4Cl)ncn3)c2)CC1
286 to 290	COC(=O)c1ccc(-c2nc(C(N)=O)c3[nH]c(=O)n(-c4ccccc4OC)c3n2)cc1
105 to 107	CC(=S)NCC1CN(c2ccc(N(C)C=O)c(F)c2)C(=O)O1 (stereo unspecified)
232 to 234	Nc1nc(N)c2cc(Sc3ccc(Cl)c(Cl)c3)ccc2n1
220 to 222	COc1cn(-c2ccc(-n3cc(F)c(F)c3)cc2OCC(F)(F)F)nc(-c2ccnn2-c2ccccc2)c1=O
131 to 134	COc1cc(-c2cc(Br)cs2)cc2oc(=O)c(C)c(C)c12
129 to 132	CN(C)CCN(CCN(C)C)c1cccc(-c2nc3cc(Cl)c(Cl)cc3[nH]2)c1
137 to 140	N=C(N)NCCCC(NC(=O)C1CCCN1C(=O)OCc1ccccc1)C(=O)O (stereo not drawn) (Cbz-Pro-Arg-OH; configuration not given here)
234 to 236	CC(C)(C)Nc1c(Nc2ccc3ncccc3c2)c(=O)c1=O
60 to 61	C=CCOc1ccc2ccc(C(=O)OCC)cc2c1
196 to 198	CC(C)C(=O)NCCCn1c(CCO)nc2c(N)nc3ccccc3c21
242 to 246	O=C1Nc2c(cc([N+](=O)[O-])cc2[N+](=O)[O-])C1c1ncnc2c1cnn2C1CCCC1 (stereo unspecified)
215 to 218	COc1cc2ncnc(N3CCc4ccc(N)cc43)c2cc1OC
286 to 291	COc1ccc(-c2[nH]nc(C(=O)Oc3ccccc3)c2N)cc1
138	CNC(=O)c1ccc(F)c2c1CC(N(CCc1c[nH]c3ccc(F)cc13)CC1CC1)CO2 (stereo unspecified)
192 to 193	O=Cc1cn(-c2ccc(Cl)cc2)nc1-c1ccc([N+](=O)[O-])o1
125 to 126	CCC(O)(c1ccc(O)cc1)c1ccc(F)cc1 (stereo unspecified)
116 to 118	CN1CCCC1=C(C#N)c1ccc(N)cc1
258	O=C(O)c1ncn(Cc2ccc(Cl)c(Cl)c2)c1C(=O)O
170 to 171	Cc1ccc(-c2nn3cccnc3c2CC(=O)O)cc1
139 to 141	CCC1Cc2cc(OCC#N)c(Cl)c(Cl)c2C1=O (stereo unspecified)

melting point [°C]	Compound
155	Cc1c(NC(=O)c2ccc(OCC3CCCO3)cc2)ccc2cc(CNC3CCC(O)CC3)cnc12 (stereo unspecified)
97 to 98	c1cc(CCCCn2ccnc2)cc(OCc2ccc3oc(-c4cccs4)nc3c2)c1
270 to 272	Cc1cc(C)cc(-c2nc(NC(=O)C(C)C)sc2-c2ccncc2)c1
86.3 to 88.3	CC(C)(C)OC(=O)c1ccc(Cl)cn1
130 to 131	COc1ccc(-c2nc(C(=O)NC3CCN(Cc4ccccc4)CC3)sc2-c2ccc(OC)cc2)cc1
146	CC(=O)C1c2cccc(O)c2C(=O)c2c(O)cccc21
136 to 137	COc1cc(COc2cc(N)c(Cl)cc2C(=O)CCCCN2CCC(C)CC2)cc(OC)c1
107 to 109	CC(C)(C)OC(=O)N1CCc2cc3nccnc3cc2CC1
313 to 315	COc1cc2c(cc1OC)-c1ncc(C(N)=O)c(=O)n1CC2
228 to 230	O=C1CCC(N2Cc3c(OCc4nc5cc(CN6CCOCC6)ccc5s4)cccc3C2=O)C(=O)N1 (stereo unspecified)
74 to 75	O=C(OCCn1ccnc1)c1ccccc1O
179 to 180	O=C(NCCCCCCNC(=O)c1ccc(OC(F)(F)F)cc1)c1ccc(OC(F)(F)F)cc1
102	CCCCCCCOc1ccc(-c2ncc(C#N)cn2)cc1
92 to 94	CCOC(=O)Oc1cc(C(C)(C)C)oc(=O)c1-c1c(C)cc(C)cc1C
142 to 145	CS(=O)c1c(C(F)(F)F)nn(-c2c(Cl)cc(C(F)(F)F)cc2Cl)c1N (stereo unspecified)
180 to 181	CC(C)=NOCc1nc2c(N)nc(C)c(C)c2n1CCCCNC(=O)C(C)C
102 to 104	Oc1ccc(C(=C2CCCCCC2)c2ccc(Br)cc2)cc1F
170	O=C(c1cccs1)c1cnn2c(-c3cccc(-c4nnn(CC5CCC5)n4)c3)ccnc12
155 to 164	Nc1nc(NC2Cc3ccccc3N(C(=O)c3ccccc3)C2)c2cn[nH]c2n1 (stereo unspecified)
167 to 169	OCc1cc2cc(O)c(Cl)c(Cl)c2s1
91 to 92	COC(=O)CCn1c(=O)n2n(c1=O)C(C(=O)OC)C=CC2 (stereo unspecified)
104 to 105	O=C(OCC(CO)(CO)COC(=O)c1ccccc1)c1ccccc1
81.8 to 83.3	COC(=O)C(Br)c1ccc(S(C)(=O)=O)cc1 (stereo unspecified)
208 to 210	Cc1c(-n2cnc3c(-c4ccccc4)cc(F)cc32)nc2ccc(F)cc2c1C(=O)O

melting point [°C]	Compound
160 to 162	C=C(C(=O)c1ccc(OCC(=O)O)c(Cl)c1Cl)C(C)(C)C
122 to 124	O=CC=CC(=C(c1ccc(F)cc1)c1ccc(F)cc1)c1nnn(C(c2ccccc2)(c2ccccc2)c2ccccc2)n1
251 to 254	Nc1cc(O)cc2cc(-c3ccc(O)cc3)oc12
113	NC(=O)COc1cccc(CCNS(=O)(=O)c2ccc(Cl)cc2)c1
148 to 153	CN(C)C(=O)c1cc(C#N)cnc1Cl
326 to 330	Cc1cccc(-c2cc3cnc(N)nc3nc2NC(=O)NC(C)(C)C)c1C
50 to 52	C=CC(=O)OCc1cn(CCCCCCCCCCCC)nn1
119 to 120	CCOc1cc(OCCCc2cn(-c3cc(C(F)(F)F)ccn3)nc2OCC)ccc1CCC(=O)O
254 to 255	Cc1ccc2c(=O)c(-c3nnnn3C)cn(C)c2c1
128 to 130	O=C(c1cc2ccc(Br)cc2o1)C12CC3CC(CC(C3)C1)C2
233 to 235	Cc1c(C#N)c(N)n(-c2ccccc2Br)c1C
67 to 69	O=C(COc1ccon1)NCCO[N+](=O)[O-]
125 to 127	CCOC(=O)c1c(C(C)(C)O)nc(SC)n1Cc1ccc(-c2ccccc2-c2nnnn2C(c2ccccc2)(c2ccccc2)c2ccccc2)cc1
65 to 67	CCCCCCCCCCNCC(O)CO (stereo unspecified)
279 to 280	COc1ccc(C(=O)Nc2ccc(C(=O)NCc3ccccc3)cc2)cc1C12CC3CC(CC(C3)C1)C2
95 to 96	CCOC(=O)C1CCc2c(n(C(C)=O)c3ccc(Cl)cc23)C1 (stereo unspecified)
198 to 201	N#CCC(=O)Nc1ccccc1S
112	OC1(c2cc(F)cc(OCc3ccccc3)c2)CCOCC1
125 to 128	COCc1cc([N+](=O)[O-])ccc1N1C(=O)c2ccc(Cl)cc2C1=O
104 to 105	Cn1c(C#N)cc(Br)c1Br
75 to 77	CCOC(=O)c1ccc(OCCCCCCCCCCCCCOc2ccc(Cl)cc2)cc1
180 to 182	CC(=O)n1ncc2cc(C)c([N+](=O)[O-])cc21
228 to 229	CCOc1ccc(-c2nc(-c3ccc(N)c(C(=O)O)c3)cs2)cc1OCC
123 to 125	CC(=O)Oc1cc2c(nc1C)C(=O)OC2=O

melting point [°C]	Compound
100 to 103	CCOP(=O)(CCC1(C)NC(=O)NC1=O)OCC (stereo unspecified)
241 to 243	C(=Cc1ccc(-c2nnn[nH]2)cc1)c1ccc(OCc2ccc3ccccc3n2)cc1
89 to 91	CS(=O)(=O)CCS(=O)(=O)C1CCCCC1
123 to 126	O=C(O)c1ccc(OC(F)(F)F)c(Cl)c1Cl
150 to 151	Ic1ccc(CCc2ccc(I)cc2)cc1
206 to 209	COc1ccc(C(=O)c2ccccc2)c(O)c1Cc1cc(C)cc(-n2nc3ccccc3n2)c1O
163 to 164	CCOC(=O)c1ccc(N=C(Nc2ccc(C(=O)OCC)cc2)c2ccccc2OC)cc1
184 to 185	O=C(O)c1ncn2c1CSC2
204 to 205	Cn1c(COc2ccc(CC3SC(=O)NC3=O)cc2)nc2cc(Br)cnc21 (stereo unspecified)
> 250	Cn1ncc(C(=O)O)c1C(=O)Nc1ccn2nc(Br)nc2c1
67 to 68	C[Si](C)(C)C(N)Cc1ccccc1 (stereo unspecified)
77 to 78	CC(C)(C)OC(=O)[C@H](CSSC[C@H](NC(=O)OCc1ccccc1)C(=O)OC(C)(C)C)NC(=O)OCc1ccccc1
102 to 103	COc1cc(CCCO)c(Br)cc1OCc1ccc(Cl)cc1Cl
207 to 208	N#Cc1ccc2cc(OCCC(c3ccccc3)(c3ccccc3)c3ccccc3)ccc2c1
157 to 159	Cc1c(N2CC3(CC3)[C@](C)(N)C2)ccc2c(=O)c(C(=O)O)cn([C@@H]3C[C@@H]3F)c12
136 to 138	CN(C)c1nc2c(ccc3ccccc32)s1
145 to 147	c1ccc(CCN2CCN(c3n[nH]c4c3CCc3sccc3-4)CC2)cc1
160	Nc1cc(=O)n(Cc2cc(Cl)ccc2F)[nH]1
116	O=C(CSC(=S)N1Cc2[nH]c3ccccc3c2CC1C(=O)O)c1ccccc1 (stereo unspecified)
112	CC(C)N(C(C)C)S(=O)(=O)N[C@@H](Cc1ccc(Oc2nccc3cnccc23)cc1)C(=O)O
222 to 223	O=c1nc(-c2cccc(-c3cccs3)n2)sc2ccccc12
90 to 92	CCOC(=O)NCC(O)c1ccc(OC)c(OC)c1 (stereo unspecified)
230	CCc1ccccc1NC=C1C(=O)N(c2ccc(NC(C)=O)cc2)N=C1C

Compound	melting point [°C]
Oc1cccc2c1CC[C@H]1[C@@H]2CCN1CCC1CCCCC1	130 to 133
Cc1nc2c(C)cccn2c(=O)c1CCN1CC=C(c2c[nH]c3ccccc23)CC1	210 to 212
CCOC(=O)CNC(=O)CN1CCCC1=O	63 to 64
[N-]=[N+]=Nc1nc(N=[N+]=[N-])c2ncn(COC(CO)CO)c2n1	174 to 180
Cc1cc(C(C)(C)C)c(O)c(S(=O)(=O)Nc2ccc(C#N)c(C(F)(F)F)c2)c1	159 to 162
Clc1ccc2onc(CBr)c2c1	83 to 85
